Key:
[1] = tested on: photo-oxidative induced retinopathy; assay: Photo-oxidative induced retinopathy: 6-hour blue light exposure, ERG after 5-day recovery
Source text: Photic retinopathy results from excessive excitation of the retinal pigment epithelium and neuroretina by absorption of visible or near ultraviolet radiation. Lesion severity is dependent upon wavelength, irradiance, exposure duration, species, ocular pigmentation, and age. Damage may result from peroxidation of cellular membranes, inactivation of mitochondrial enzymes such as cytochrome oxidase, or increased intracellular calcium. Cellular damage resulting from photo-oxidative stress leads to cell death by apoptosis, (Shahinfar, S., Edward. D. P. and Tso, M. O. (1991), A pathologic study of photoreceptor cell death in retinal photic injury. Current Eye Research, 10:47-59: Abler, A. S., Chang, C. J., Fu, J. and Tso, M. O. (1994), Photic injury triggers apoptosis of photoreceptor cells. Investigative Ophthalmology & Visual Science, 35(Suppl):1517). Oxidative stress induced apoptosis has been implicated as a cause of many ocular pathologies, including, iatrogenic retinopathy, macular degeneration, retinitis pigmentosa and other forms of heredodegenerative disease, ischemic retinopathy, retinal tears, retinal detachment, glaucoma and retinal neovascularization (Chang, C. J., Lai, W. W., Edward, D. P. and Tso, M. O. (1995), Apoptotic photoreceptor cell death after traumatic retinal detachment in humans, Archives of Ophthalmology, 113:880-886: Portera-Cailliau, C., Sung, C. H., Nathans, J. and Adler, R. (1994), Apoptotic photoreceptor cell death in mouse models of retinitis pigmentosa, Proceedings of National Academy of Science (U.S.A.), 91:974-978; Buchi, E. R. (1992), Cell death in the rat retina after a pressure-induced ischaemia-reperfusion insult: an electron microscopic study. I. Ganglion cell layer and inner nuclear layer, Experimental Eye Research, 55:605-613; Quigley, H. A., Nickells. R. W., Kerrigan, L. A., Pease, M. E., Thibault, D. J. and Zack, D. J. (1995), Retinal ganglion cell death in experimental glaucoma and after axotomy occurs by apoptosis, Investigative Ophthalmology & Visual Science, 36:774-786). […] Alan R. Liss, Inc., New York; Collier, R., W. Waldron and Zigman, S. (1989), Temporal sequence of changes to the gray squirrel retina after near-UV exposure, Investigative Ophthalmology & Visual Science, 30:631-637), non-human primates (Tso, M. O. M. (1973), Photic maculopathy in rhesus monkey. A light and electron microscopic study. Investigative Ophthalmology & Visual Science, 12:17-34; Ham, W. T., Jr., Ruffolo, J. J., Jr., Mueller, H. A. and Guerry, D., III. (1980), The nature of retinal radiation damage: dependence on wavelength, power level and exposure time, Vision Research, 20:1105-1111; Sperling, H. G., Johnson, C. and Harwerth, R. S. (1980), Differential spectral photic damage to primate cones, Vision Research, 20:1117-1125: Sykes, S. M., Robison, W. G., Jr., Waxler, M. and Kuwabara, T. (1981), Damage to the monkey retina by broad spectrum fluorescent light, Investigative Ophthalmology & Visual Science, 20:425-434; Lawwill, T. (1982), Three major pathologic processes caused by light in the primate retina: A search for mechanisms, Transactions of the American Ophthalmology Society, 80:517-577), and man (Marshall, J. Hamilton, A. M. and Bird, A. C. (1975), Histopathology of ruby and argon laser lesions in monkey and human retina, British Journal of Ophthalmology, 59:610-630; Green, W. R. and Robertson, D. M. (1991), Pathologic findings of photic retinopathy in the human eye. American Journal of Ophthalmology, 112:520-27).

[2] = tested on: laser induced thermal burns to the retina; conditions: cited from earlier work
retinal laser burn = assay: Retinal laser burn spread damage: argon laser, lesion area in outer nuclear layer after 48 hours; format: in vivo, Pigmented Long Evans rats
Source text: The eye is exposed to high-energy laser radiation during the performance of retinal photocoagulation therapy (grid, focal and […]) or during photodynamic therapy. This type of therapy is often employed during treatment of choroidal neovascularization, proliferative stages of diabetic retinopathy, retinopathy of prematurity, or to repair retinal holes or […]. Associated with this laser therapy is tissue destruction leading to vision deterioration. […] It is believed that this vision loss results directly from the expansion of the laser-induced lesion to surrounding normal neurosensory retina and RPE. Singlet oxygen and other reactive oxygen species as well as cytokines are generated in the area of the laser burn and thought to migrate laterally to cause collateral retinal damage. Retinal morphology changes in this area are similar to changes in our photo-oxidative retinopathy paradigm. […] Pigmented Long Evans rats were randomly assigned to control, vehicle or drug dosed groups. […] After a 48-hour recovery period, eyes were fixed, dehydrated, and embedded in plastic resin. Histological assessment of laser burns was performed by flatmounting the retina and sectioning the tissue in a plane tangential to the nerve fiber layer. Using this technique, the lesion area in the outer nuclear layer could be calculated using an image analysis system. […] The laser bum center was marked by; complete closure of all capillaries, arterioles and venuoles; perforation of Bruch's membrane; pyknosis and necrosis of all photoreceptor nuclei; and destruction of inner and outer segments. Spread of the lesion into peripheral retina consisted of shortening of outer segments, inner segment swelling, clumping of melanin granules in the RPE and choroid, and vacuolization of the RPE.

NMDA receptor = assay: Binding affinity to the NMDA receptor; conditions: order of magnitude only
[3] = tested on: light induced functional or morphological changes; assay: Light damage paradigms (light induced damage paradigm); conditions: in vivo
Method: Eliprodil was evaluated in our light induced damage paradigm, a model of retinal degenerative diseases such as retinitis pigmentosa and age-related macular degeneration.

[4] = molecular target: NR1A/NR2B subtype of the polyamine binding site of the NMDA receptor (Homo sapiens, UniProt Q05586+Q13224); conditions: cited from earlier work
Chain of NR1A/NR2B subtype of the polyamine binding site of the NMDA receptor (Q13224 27-1484, other chains not shown): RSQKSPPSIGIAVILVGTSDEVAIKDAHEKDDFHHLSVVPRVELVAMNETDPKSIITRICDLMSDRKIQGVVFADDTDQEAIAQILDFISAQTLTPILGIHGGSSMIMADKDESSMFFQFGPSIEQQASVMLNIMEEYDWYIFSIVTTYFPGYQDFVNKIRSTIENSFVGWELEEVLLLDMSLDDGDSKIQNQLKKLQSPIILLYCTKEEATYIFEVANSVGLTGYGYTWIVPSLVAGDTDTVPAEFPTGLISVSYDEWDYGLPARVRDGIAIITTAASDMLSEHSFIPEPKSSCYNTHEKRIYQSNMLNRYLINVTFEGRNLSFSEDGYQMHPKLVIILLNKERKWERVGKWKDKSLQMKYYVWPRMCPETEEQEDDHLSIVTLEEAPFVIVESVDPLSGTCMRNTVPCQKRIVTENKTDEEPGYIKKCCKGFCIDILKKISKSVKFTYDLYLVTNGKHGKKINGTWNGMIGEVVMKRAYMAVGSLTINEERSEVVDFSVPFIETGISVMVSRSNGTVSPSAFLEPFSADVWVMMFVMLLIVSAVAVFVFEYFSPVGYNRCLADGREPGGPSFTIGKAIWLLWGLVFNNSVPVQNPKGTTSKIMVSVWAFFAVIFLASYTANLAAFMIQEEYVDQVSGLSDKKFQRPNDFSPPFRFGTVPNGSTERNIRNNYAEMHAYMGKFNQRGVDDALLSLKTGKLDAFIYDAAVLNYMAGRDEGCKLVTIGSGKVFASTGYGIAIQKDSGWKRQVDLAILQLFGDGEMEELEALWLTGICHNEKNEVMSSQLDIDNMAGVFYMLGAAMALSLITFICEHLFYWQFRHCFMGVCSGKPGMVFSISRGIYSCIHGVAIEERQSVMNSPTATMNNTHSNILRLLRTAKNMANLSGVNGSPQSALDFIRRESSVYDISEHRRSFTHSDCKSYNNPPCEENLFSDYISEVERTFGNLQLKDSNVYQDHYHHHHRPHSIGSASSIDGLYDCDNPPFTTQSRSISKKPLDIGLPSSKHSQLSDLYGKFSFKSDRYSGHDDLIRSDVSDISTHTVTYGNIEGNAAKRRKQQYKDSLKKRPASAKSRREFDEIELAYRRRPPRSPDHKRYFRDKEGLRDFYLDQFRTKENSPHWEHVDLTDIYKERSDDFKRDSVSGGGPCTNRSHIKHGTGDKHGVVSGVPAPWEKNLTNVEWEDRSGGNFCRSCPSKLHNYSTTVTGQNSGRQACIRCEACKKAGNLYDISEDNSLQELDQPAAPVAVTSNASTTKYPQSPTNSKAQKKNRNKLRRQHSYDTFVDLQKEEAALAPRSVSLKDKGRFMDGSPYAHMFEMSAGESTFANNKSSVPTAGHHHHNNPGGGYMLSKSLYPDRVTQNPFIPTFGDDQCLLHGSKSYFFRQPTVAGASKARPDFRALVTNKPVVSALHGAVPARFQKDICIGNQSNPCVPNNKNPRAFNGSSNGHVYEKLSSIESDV

[5] = tested on: mechanical stress induced ischemia reperfusion; conditions: Arch Ophthal 1993; cited from earlier work

## C[C@]12N[C@H](Cc3ccccc31)c1ccccc12 [MK-801, reference compound]
[1]; Experiment 1
  dose dependence of protection of outer and inner retina function: dose-dependent protection
[1]; Experiment 1, 2 mg/kg IP, vs vehicle
  protection of outer and inner retina function against light induced retinal degeneration: No significant protection
[1]; Experiment 1, 10 mg/kg IP, vs vehicle
  protection of outer and inner retina function against light induced retinal degeneration: No significant protection
[1]; Experiment 1, 20 mg/kg IP
  ERG responses compared with control (normal): not significantly different than control
[1]; Experiment 1, 20 mg/kg IP at 48, 24, 0 h before light, vs vehicle
  protection of outer and inner retina function against light induced retinal degeneration: significant protection
[1]; Experiment 1, 20 mg/kg IP, controls 734.05 μV
  maximum a-wave response amplitude: 537.93 μV
[1]; Experiment 1, 20 mg/kg IP, controls 1807 μV
  maximum b-wave response amplitude: 1449.77 μV
[1]; summary of Experiments 1 and 2
  rescue of RPE and photoreceptor cells (summary): Complete protection
[2]; 3 and 20 days post laser exposure
  prevention of photoreceptor loss: did not significantly prevent
[2]; at 60 days
  preventing the spread of laser induced thermal burns to the retina: minimally effective

## O[C@@H](CN1CCC(Cc2ccc(F)cc2)CC1)c1ccc(Cl)cc1 [R-eliprodil]
Retinal laser burn; 20 mg/kg IP
  lesion area smaller than in vehicle dosed rats: 16%
  significance of lesion area difference from vehicle: not significantly different
Retinal laser burn; 40 mg/kg IP
  Laser burn lesion area: 36,016 μ^2
  lesion area smaller than in vehicle dosed rats: 28%
  significance of lesion area difference from vehicle: significantly diflerent
Retinal laser burn
  reduction of collateral retinal damage around the laser burn (summary): significant reduction
NMDA receptor
  binding affinity to the NMDA receptor: nanomolar
[1]; rat, in vivo
  potency relative to eliprodil (racemic): two-fold less potent
[1]; rat, in vivo, ip, 20 mg/kg
  Maximum a-wave response, % of normal: 38%
  Maximum b-wave response, % of normal: 36%
  protection of outer and inner retina function against light induced retinal degeneration: No significant protection
[1]; rat, in vivo, ip, 40 mg/kg
  Response amplitudes, fold higher than vehicle dosed rats: about 2 fold
  maximum a-wave response amplitude: 397.25 μV
  maximum b-wave response amplitude: 812.87 μV
  protection of outer and inner retina function against light induced retinal degeneration: significant protection
  response amplitudes, % of normal: ~50%
[1]; rat, in vivo, ip, 80 mg/kg
  Maximum a- and b-wave responses, % of normal: approximately 40%
  protection of outer and inner retina function against light induced retinal degeneration: No significant retinal protection

## COCCOC(=O)C1=C(C)NC(C)=C(C(=O)OC(C)C)C1c1cccc([N+](=O)[O-])c1 (centres unmarked) [nimodipine]
[3]
  preventing light induced functional or morphological changes: no effect

## Fc1ccc(C(c2ccc(F)cc2)N2CCN(C/C=C/c3ccccc3)CC2)cc1 [flunarizine]
[3]
  preventing light induced functional or morphological changes: moderately effective

## CC12CC3CC(C)(C1)CC(N)(C3)C2 [memantine, reference compound]
[1]; rat, in vivo
  dose dependence of protection of outer and inner retina function: dose-dependent protection
[1]; rat, in vivo, ip, 2 mg/kg
  protection of outer and inner retina function against light induced retinal degeneration: no significant protection
[1]; rat, in vivo, ip, 20 mg/kg
  ERG responses compared with control (normal): significantly lower than normal
  protection of outer and inner retina function against light induced retinal degeneration: significant protection

## CC(C(O)c1ccc(O)cc1)N1CCC(Cc2ccccc2)CC1 (centres unmarked) [ifenprodil]
[4]
  subtype preference of NMDA receptor block: preferentially block

## O[C@H](CN1CCC(Cc2ccc(F)cc2)CC1)c1ccc(Cl)cc1 [S-eliprodil]
Retinal laser burn; 20 mg/kg IP
  Laser burn lesion area: 43,098.5 μ^2
  lesion area smaller than in vehicle dosed rats: 15%
  significance of lesion area difference from vehicle: not significantly different
Retinal laser burn
  reduction of collateral retinal damage around the laser burn (summary): devoid of significant efficacy
NMDA receptor
  binding affinity to the NMDA receptor: millimolar
[1]; rat, in vivo
  potency rank as retinoprotective agent in the series: most potent
  potency relative to eliprodil (racemic): two-fold more potent
[1]; rat, in vivo, ip, 5 mg/kg
  difference in ERG response amplitude compared to vehicle dosed rats: No significant difference
[1]; rat, in vivo, ip, 10 mg/kg
  Maximum a-wave response, % of normal: 64%
  Maximum b-wave response, % of normal: 76%
  protection of outer and inner retina function against light induced retinal degeneration: Significant protection
[1]; rat, in vivo, ip, 20 mg/kg
  Response amplitudes, fold higher than vehicle dosed rats: about 2 fold
  maximum a-wave response amplitude: 418.04 μV
  maximum b-wave response amplitude: 1015.95 μV
  protection of outer and inner retina function against light induced retinal degeneration: Significant protection
  response amplitudes, % of normal: approximately 62%

## COc1ccc2c(c1)[C@]13CCCC[C@@H]1[C@H](C2)N(C)CC3 [dextromethorphan]
[5]
  protection of inner retina function and RPE function: moderately protected
  protective effect for outer retina function: no significant protective effect

## C[C@@H]([C@@H](O)c1ccc(O)cc1)N1CCC(O)(c2ccccc2)CC1 [CP-101,606]
[4]
  subtype preference of NMDA receptor block: preferentially block

## prenylamine lactate
[3]
  preventing light induced functional or morphological changes: no effect

## Cc1c(C)c2c(c(C)c1O)CC[C@@](C)(CCC[C@H](C)CCC[C@H](C)CCCC(C)C)O2 [alpha-tocopherol]
[3]
  preventing light induced functional or morphological changes: ineffective

## N=C(N)NC(=O)c1nc(Cl)c(N)nc1N [amiloride]
[3]
  preventing light induced functional or morphological changes: no effect

## Cc1cccc(C)c1NC(=O)CN1CCN(CCCC(c2ccc(F)cc2)c2ccc(F)cc2)CC1 [lidoflazine]
[3]
  preventing light induced functional or morphological changes: no effect

## COC(=O)C1=C(C)NC(C)=C(C(=O)O[C@H]2CCN(Cc3ccccc3)C2)[C@H]1c1cccc([N+](=O)[O-])c1 [barnidipine]
[3]
  preventing light induced functional or morphological changes: no effect

— patent US6509355B1, “Treatment of disorders of the outer retina” (Alcon Laboratories, Inc., priority 1998, dated 2003)
